Columns and labels:
Assay in all cases: increase in dead-cell fraction, 72 h; higher = more death;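 further: breast cancer cell lines in 384-well plates, stained with Hoechst plus LIVE/DEAD far red dye and imaged, cells above an LDR intensity threshold counted dead, Hoechst-negative corpses included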
[1] = compound: CC(=O)Nc1cccc(-n2c(=O)n(C3CC3)c(=O)c3c(Nc4ccc(I)cc4F)n(C)c(=O)c(C)c32)c1
ABT-737 = compound: CN(C)CC[C@H](CSc1ccccc1)Nc1ccc(S(=O)(=O)NC(=O)c2ccc(N3CCN(Cc4ccccc4-c4ccc(Cl)cc4)CC3)cc2)cc1[N+](=O)[O-] [ABT-737]
AZD2014 = compound: CNC(=O)c1cccc(-c2ccc3c(N4CCOC[C@@H]4C)nc(N4CCOC[C@@H]4C)nc3n2)c1 [AZD2014]
AZD5363 = compound: NC1(C(=O)N[C@@H](CCO)c2ccc(Cl)cc2)CCN(c2nc[nH]c3nccc2-3)CC1 [AZD5363]
Alpelisib/BYL719 = compound: Cc1nc(NC(=O)N2CCC[C@H]2C(N)=O)sc1-c1ccnc(C(C)(C)C(F)(F)F)c1 [Alpelisib/BYL719]
BVD523 = compound: CC(C)Nc1cc(-c2c[nH]c(C(=O)N[C@H](CO)c3cccc(Cl)c3)c2)c(Cl)cn1 [BVD523]
Doxorubicin = compound: COc1cccc2c1C(=O)c1c(O)c3c(c(O)c1C2=O)C[C@@](O)(C(=O)CO)C[C@@H]3O[C@H]1C[C@H](N)[C@H](O)[C@H](C)O1 [Doxorubicin]
Cediranib/AZD2171 = compound: COc1cc2c(Oc3ccc4[nH]c(C)cc4c3F)ncnc2cc1OCCCN1CCCC1 [Cediranib/AZD2171]
Vorinostat = compound: O=C(CCCCCCC(=O)Nc1ccccc1)NO [Vorinostat]
Cabozantinib = compound: COc1cc2nccc(Oc3ccc(NC(=O)C4(C(=O)Nc5ccc(F)cc5)CC4)cc3)c2cc1OC [Cabozantinib]
FMF-03-145-1 = compound: CCC(=O)Nc1ccc(C(=O)Nc2ccc(Nc3ncc4c(n3)N(C)c3ccc(C)cc3C(=O)N4C)cc2)cc1 [FMF-03-145-1]
[2] = compound: CO[C@@H](C)Cn1c(=O)n(C)c2cnc3ccc(-c4cncc(C(C)(C)O)c4)cc3c21

AU565
increase in dead-cell fraction ([1]; 0.0001 µM): 0.0026 | increase in dead-cell fraction ([1]; 0.0003162 µM): 0.0025 | increase in dead-cell fraction ([1]; 0.001 µM): 0.0021 | increase in dead-cell fraction ([1]; 0.003162 µM): 0.0022 | increase in dead-cell fraction ([1]; 0.01 µM): 0.0009 | increase in dead-cell fraction ([1]; 0.03162 µM): -0.0017 | increase in dead-cell fraction ([1]; 0.1 µM): -0.0015 | increase in dead-cell fraction ([1]; 0.3162 µM): -0.0026 | increase in dead-cell fraction ([1]; 1 µM): 0.0032 | increase in dead-cell fraction (ABT-737; 0.001 µM): 0.0066 | increase in dead-cell fraction (ABT-737; 0.003162 µM): 0.0005 | increase in dead-cell fraction (ABT-737; 0.01 µM): 0.0025 | increase in dead-cell fraction (ABT-737; 0.03162 µM): -0.0006 | increase in dead-cell fraction (ABT-737; 0.1 µM): 0.0014 | increase in dead-cell fraction (ABT-737; 0.3162 µM): 0.0008 | increase in dead-cell fraction (ABT-737; 1 µM): 0.0066 | increase in dead-cell fraction (ABT-737; 3.162 µM): 0.0073 | increase in dead-cell fraction (ABT-737; 10 µM): 0.0507 | increase in dead-cell fraction (AZD2014; 0.001 µM): 0.0342 | increase in dead-cell fraction (AZD2014; 0.003162 µM): 0.0014 | increase in dead-cell fraction (AZD2014; 0.01 µM): 0.032 | increase in dead-cell fraction (AZD2014; 0.03162 µM): 0.0412 | increase in dead-cell fraction (AZD2014; 0.1 µM): 0.0311 | increase in dead-cell fraction (AZD2014; 0.3162 µM): 0.107 | increase in dead-cell fraction (AZD2014; 1 µM): 0.0854 | increase in dead-cell fraction (AZD2014; 3.162 µM): 0.0584 | increase in dead-cell fraction (AZD2014; 10 µM): 0.126 | increase in dead-cell fraction (AZD5363; 0.001 µM): -0.0047 | increase in dead-cell fraction (AZD5363; 0.003162 µM): 0.0058 | increase in dead-cell fraction (AZD5363; 0.01 µM): 0.0054 | increase in dead-cell fraction (AZD5363; 0.03162 µM): 0.0087 | increase in dead-cell fraction (AZD5363; 0.1 µM): 0.0196 | increase in dead-cell fraction (AZD5363; 0.3162 µM): -0.0036 | increase in dead-cell fraction (AZD5363; 1 µM): 0.0183 | increase in dead-cell fraction (AZD5363; 3.162 µM): 0.0124 | increase in dead-cell fraction (AZD5363; 10 µM): 0.0512 | increase in dead-cell fraction (Alpelisib/BYL719; 0.001 µM): 0.0064 | increase in dead-cell fraction (Alpelisib/BYL719; 0.003162 µM): 0.0041 | increase in dead-cell fraction (Alpelisib/BYL719; 0.01 µM): 0.0062 | increase in dead-cell fraction (Alpelisib/BYL719; 0.03162 µM): 0.0114 | increase in dead-cell fraction (Alpelisib/BYL719; 0.1 µM): 0.0193 | increase in dead-cell fraction (Alpelisib/BYL719; 0.3162 µM): 0.0259 | increase in dead-cell fraction (Alpelisib/BYL719; 1 µM): 0.0468 | increase in dead-cell fraction (Alpelisib/BYL719; 3.162 µM): 0.0789 | increase in dead-cell fraction (Alpelisib/BYL719; 10 µM): 0.222 | increase in dead-cell fraction (BVD523; 0.001 µM): -0.0105 | increase in dead-cell fraction (BVD523; 0.003162 µM): -0.0083 | increase in dead-cell fraction (BVD523; 0.01 µM): -0.0074 | increase in dead-cell fraction (BVD523; 0.03162 µM): -0.0063 | increase in dead-cell fraction (BVD523; 0.1 µM): -0.0004 | increase in dead-cell fraction (BVD523; 0.3162 µM): -0.0069 | increase in dead-cell fraction (BVD523; 1 µM): 0.0092 | increase in dead-cell fraction (BVD523; 3.162 µM): 0.0104 | increase in dead-cell fraction (BVD523; 10 µM): 0.0436 | increase in dead-cell fraction (Doxorubicin; 0.0003162 µM): 0.0037 | increase in dead-cell fraction (Doxorubicin; 0.001 µM): 0.0029 | increase in dead-cell fraction (Doxorubicin; 0.003162 µM): -0.0003 | increase in dead-cell fraction (Doxorubicin; 0.01 µM): -0.0009 | increase in dead-cell fraction (Doxorubicin; 0.03162 µM): 0.0192 | increase in dead-cell fraction (Doxorubicin; 0.1 µM): 0.0682 | increase in dead-cell fraction (Doxorubicin; 0.3162 µM): 0.138 | increase in dead-cell fraction (Doxorubicin; 1 µM): 0.199 | increase in dead-cell fraction (Doxorubicin; 3.162 µM): 0.22 | increase in dead-cell fraction (Cediranib/AZD2171; 0.001 µM): 0.0037 | increase in dead-cell fraction (Cediranib/AZD2171; 0.003162 µM): 0.0046 | increase in dead-cell fraction (Cediranib/AZD2171; 0.01 µM): 0.0016 | increase in dead-cell fraction (Cediranib/AZD2171; 0.03162 µM): 0.0034 | increase in dead-cell fraction (Cediranib/AZD2171; 0.1 µM): -0.0003 | increase in dead-cell fraction (Cediranib/AZD2171; 0.3162 µM): -0.0061 | increase in dead-cell fraction (Cediranib/AZD2171; 1 µM): -0.0046 | increase in dead-cell fraction (Cediranib/AZD2171; 3.162 µM): -0.0048 | increase in dead-cell fraction (Cediranib/AZD2171; 10 µM): 0.0027 | increase in dead-cell fraction (Vorinostat; 0.001 µM): -0.0016 | increase in dead-cell fraction (Vorinostat; 0.003162 µM): 0.0067 | increase in dead-cell fraction (Vorinostat; 0.01 µM): 0.0043 | increase in dead-cell fraction (Vorinostat; 0.03162 µM): 0.0012 | increase in dead-cell fraction (Vorinostat; 0.1 µM): 0.0011 | increase in dead-cell fraction (Vorinostat; 0.3162 µM): -0.0009 | increase in dead-cell fraction (Vorinostat; 1 µM): 0.0099 | increase in dead-cell fraction (Vorinostat; 3.162 µM): 0.142 | increase in dead-cell fraction (Vorinostat; 10 µM): 0.241 | increase in dead-cell fraction (Cabozantinib; 0.001 µM): 0.0017 | increase in dead-cell fraction (Cabozantinib; 0.003162 µM): 0.0057 | increase in dead-cell fraction (Cabozantinib; 0.01 µM): 0.0018 | increase in dead-cell fraction (Cabozantinib; 0.03162 µM): -0.0008 | increase in dead-cell fraction (Cabozantinib; 0.1 µM): -0.003 | increase in dead-cell fraction (Cabozantinib; 0.3162 µM): 0.0025 | increase in dead-cell fraction (Cabozantinib; 1 µM): 0.0028 | increase in dead-cell fraction (Cabozantinib; 3.162 µM): -0.0021 | increase in dead-cell fraction (Cabozantinib; 10 µM): 0.0274 | increase in dead-cell fraction (FMF-03-145-1; 0.0001 µM): 0.0006 | increase in dead-cell fraction (FMF-03-145-1; 0.0003162 µM): 0.0131 | increase in dead-cell fraction (FMF-03-145-1; 0.001 µM): 0.0011 | increase in dead-cell fraction (FMF-03-145-1; 0.003162 µM): 0.0053 | increase in dead-cell fraction (FMF-03-145-1; 0.01 µM): 0.231 | increase in dead-cell fraction (FMF-03-145-1; 0.03162 µM): 0.127 | increase in dead-cell fraction (FMF-03-145-1; 0.1 µM): 0.102 | increase in dead-cell fraction ([2]; 0.001 µM): 0.0299 | increase in dead-cell fraction ([2]; 0.003162 µM): 0.0425 | increase in dead-cell fraction ([2]; 0.01 µM): 0.0372 | increase in dead-cell fraction ([2]; 0.03162 µM): 0.0503 | increase in dead-cell fraction ([2]; 0.1 µM): 0.0586 | increase in dead-cell fraction ([2]; 0.3162 µM): 0.0998 | increase in dead-cell fraction ([2]; 1 µM): 0.074 | increase in dead-cell fraction ([2]; 3.162 µM): 0.091 | increase in dead-cell fraction ([2]; 10 µM): 0.511

Source: the supplement of paper PMC9663587
